Results: ChEMBL document CHEMBL3885861, “Open TG-GATES”

Species on record: Rattus norvegicus
Experiment: Open TG-GATES - Regimen: Single
Assay type: toxicity, organism-based, Sprague-Dawley
Set-up: regimen Single, gender Male, age 6 weeks
Conditions: in vivo, po, 0 mg/kg, route gavage, dose level Control; for APTT / Bas / Eos / Fbg / Ht / Lym / MCHC / MCV / Mono / PT / Plat / RBC / Ret / WBC / Hb: tissue Blood; for KIDNEY_L / KIDNEY_R / KIDNEY_TOTAL: tissue Kidney; for LIVER: tissue Liver; for ALP / ALT / AST / BUN / CRE / DBIL / GLC / IP / K / LDH / RALB / TBIL / TC / TP / gamma-GTP / PL: tissue Plasma

CN(C)CCCN1c2ccccc2CCc2ccccc21 [IMIPRAMINE]
TERMINAL_BW (3 h): 203.9 g | APTT (3 h): 16.9 s | Bas (3 h): 0.2% | Eos (3 h): 1% | Fbg (3 h): 270.6 mg/dL | Ht (3 h): 40.9% | Lym (3 h): 79.2% | MCHC (3 h): 32.3% | MCV (3 h): 64.7 fL | Mono (3 h): 2.8% | PT (3 h): 15.9 s | Plat (3 h): 112.7 x10_4/uL | RBC (3 h): 632.8 x10_4/ul | Ret (3 h): 8.2% | WBC (3 h): 81.7 x10_2/uL | KIDNEY_L (3 h): 0.9 g | KIDNEY_R (3 h): 0.9 g | KIDNEY_TOTAL (3 h): 1.7 g | LIVER (3 h): 9.1 g | ALP (3 h): 1571.6 IU/L | ALT (3 h): 52 IU/L | AST (3 h): 84.6 IU/L | BUN (3 h): 9 mg/dL | CRE (3 h): 0.2 mg/dL | DBIL (3 h): 0.01 mg/dL | GLC (3 h): 183.2 mg/dL | IP (3 h): 8.9 mg/dL | K (3 h): 4 meq/L | LDH (3 h): 111 IU/L | RALB (3 h): 2.6 g/dL | TBIL (3 h): 0.07 mg/dL | TC (3 h): 84 mg/dL | TP (3 h): 5.4 g/dL | gamma-GTP (3 h): 1.6 IU/L | TERMINAL_BW (6 h): 201.5 g | APTT (6 h): 15.5 s | Bas (6 h): 0.4% | Eos (6 h): 0.8% | Fbg (6 h): 326 mg/dL | Hb (6 h): 12.8 g/dL | Ht (6 h): 39.2% | Lym (6 h): 73.2% | MCHC (6 h): 32.5% | MCV (6 h): 63.9 fL | Mono (6 h): 3% | PT (6 h): 15.8 s | Plat (6 h): 112.2 x10_4/uL | RBC (6 h): 614.8 x10_4/ul | Ret (6 h): 7.6% | WBC (6 h): 95 x10_2/uL | KIDNEY_L (6 h): 0.9 g | KIDNEY_R (6 h): 0.9 g | KIDNEY_TOTAL (6 h): 1.9 g | LIVER (6 h): 9.1 g | ALP (6 h): 1465 IU/L | ALT (6 h): 52.8 IU/L | AST (6 h): 99.2 IU/L | BUN (6 h): 8.4 mg/dL | CRE (6 h): 0.2 mg/dL | GLC (6 h): 176.2 mg/dL | IP (6 h): 9.4 mg/dL | K (6 h): 4 meq/L | LDH (6 h): 80.4 IU/L | PL (6 h): 133.6 mg/dL | RALB (6 h): 2.5 g/dL | TBIL (6 h): 0.07 mg/dL | TC (6 h): 72.6 mg/dL | TP (6 h): 5.3 g/dL | gamma-GTP (6 h): 1.2 IU/L | TERMINAL_BW (9 h): 200.5 g | APTT (9 h): 16 s | Bas (9 h): 0.4% | Eos (9 h): 1% | Fbg (9 h): 291.6 mg/dL | Hb (9 h): 12.9 g/dL | Ht (9 h): 40.1% | Lym (9 h): 80.8% | MCHC (9 h): 32.3% | MCV (9 h): 65.1 fL | Mono (9 h): 2.4% | PT (9 h): 15.3 s | Plat (9 h): 110.6 x10_4/uL | RBC (9 h): 615.4 x10_4/ul | Ret (9 h): 8.2% | WBC (9 h): 76.7 x10_2/uL | KIDNEY_L (9 h): 0.9 g | KIDNEY_R (9 h): 0.9 g | KIDNEY_TOTAL (9 h): 1.8 g | LIVER (9 h): 8.2 g | ALP (9 h): 1396.6 IU/L | ALT (9 h): 37.4 IU/L | AST (9 h): 69.6 IU/L | BUN (9 h): 8 mg/dL | CRE (9 h): 0.1 mg/dL | DBIL (9 h): 0.008 mg/dL | GLC (9 h): 178 mg/dL | IP (9 h): 9.9 mg/dL | K (9 h): 4.1 meq/L | LDH (9 h): 59 IU/L | PL (9 h): 136 mg/dL | RALB (9 h): 2.5 g/dL | TBIL (9 h): 0.068 mg/dL | TC (9 h): 74.4 mg/dL | TP (9 h): 5.2 g/dL | gamma-GTP (9 h): 1 IU/L | TERMINAL_BW (24 h): 217.3 g | APTT (24 h): 17.1 s | Bas (24 h): 0.2% | Eos (24 h): 1.2% | Fbg (24 h): 265.2 mg/dL | Ht (24 h): 41.7% | Lym (24 h): 76.2% | MCHC (24 h): 32.1% | MCV (24 h): 66.7 fL | Mono (24 h): 2.8% | PT (24 h): 16.1 s | Plat (24 h): 114.2 x10_4/uL | RBC (24 h): 626.2 x10_4/ul | Ret (24 h): 7.8% | WBC (24 h): 93.4 x10_2/uL | KIDNEY_L (24 h): 0.9 g | KIDNEY_R (24 h): 0.9 g | KIDNEY_TOTAL (24 h): 1.8 g | LIVER (24 h): 10.2 g | ALP (24 h): 1689.2 IU/L | ALT (24 h): 59 IU/L | AST (24 h): 83.4 IU/L | CRE (24 h): 0.2 mg/dL | DBIL (24 h): 0.02 mg/dL | GLC (24 h): 185.4 mg/dL | IP (24 h): 8.1 mg/dL | K (24 h): 3.9 meq/L | LDH (24 h): 75.2 IU/L | RALB (24 h): 2.6 g/dL | TBIL (24 h): 0.06 mg/dL
